From ChEMBL document CHEMBL1201862, “PubChem BioAssay data set” (2004) come the findings set out here.

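Exposure lasted 48 hours, with cells grown in 96-well plates and compounds tested at five concentrations. GI50: concentration for 50% inhibition of growth.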 Activity calls are given as the source filed them. No stated cut-off is given here; in the data, active = GI50 up to about 1.1 µM and inactive = higher. Where only a bound is given, the exact number is not on record here.

For orientation: GI50 means the concentration giving 50% growth inhibition.

Some test systems named below: A498; ACHN; HCT-15; IGROV-1; LOX IMVI; M14; OVCAR-3; OVCAR-4; OVCAR-5; OVCAR-8; SF-268; SF-295; SF-539; SN12C; SR; UACC-257; UO-31; HT-29; HOP-62.
Holding throughout (assay): DTP human tumour cell line panel, 48 h

Turning to `COc1ccc(-n2c(CCCC(=O)O)nc3c2C(=O)c2ccccc2C3=O)cc1`, the GI50 in the assay with A498 is > 100 µM (inactive); in the assay on ACHN, 71.3 µM (inactive); in the assay on HCT-15, 44.5 µM; in the assay with IGROV-1 it was 79.3 µM (inactive); in the assay on LOX IMVI, 54.8 µM (inactive); in the assay with M14, 15.5 µM (inactive). The GI50 in the assay with OVCAR-3 is 33.3 µM (inactive); in the assay on OVCAR-4 it was 53.3 µM (inactive); with OVCAR-5 it was > 100 µM (inactive); in the assay with OVCAR-8, 51.3 µM (inactive); in the assay with SF-268, 46.7 µM (inactive); in the assay on SF-295 it was 43 µM (inactive). For the same compound, the GI50 in the assay with SF-539 was > 100 µM (inactive); in the assay on SN12C, 54.6 µM (inactive); in the assay with SR, 66.8 µM (inactive); in the assay with UACC-257, 27.8 µM (inactive); in the assay on UO-31, > 100 µM (inactive).

As to `O=c1[nH]nc(N/N=C\c2ccc(Cl)cc2)c2ccccc12`, the GI50 is 30.3 µM (inactive) in the assay with A498; 21.4 µM (inactive) with ACHN; 17.9 µM in the assay with HCT-15; 29.5 µM (inactive) with HT-29; 15.4 µM (inactive) with IGROV-1; 18.7 µM (inactive) in the assay on M14. For the same compound, the GI50 was 16 µM (inactive) with OVCAR-3; 52.7 µM (inactive) in the assay on OVCAR-4; 16.9 µM (inactive) in the assay on OVCAR-5; 24.3 µM (inactive) with OVCAR-8; 23.2 µM (inactive) with SF-268; 18.5 µM (inactive) with SF-295. Also, the GI50 was 21.4 µM (inactive) in the assay on SF-539; 27.5 µM (inactive) in the assay with SN12C; 3.9 µM (inactive) in the assay on SR; 21.4 µM (inactive) in the assay with UACC-257; 18.6 µM (inactive) in the assay on UO-31.

Regarding `CCC1CC2C(=O)N(c3ccccc3)C(=O)C2c2[nH]c3ccccc3c21` (stereo not drawn), the GI50 in the assay with A498 is 25.4 µM (inactive); in the assay on ACHN, 20.2 µM (inactive); in the assay with HCT-15, 60.8 µM; in the assay with HT-29, 22.2 µM (inactive); in the assay on IGROV-1, 6.43 µM (inactive); with LOX IMVI, 17.1 µM (inactive). The GI50 is 17.1 µM (inactive) in the assay on M14; 15.7 µM (inactive) in the assay on OVCAR-3; 4.61 µM (inactive) in the assay with OVCAR-4; > 100 µM (inactive) in the assay on OVCAR-5; 12.2 µM (inactive) in the assay with OVCAR-8; 24.5 µM (inactive) in the assay with SF-268. Besides, the GI50 was 7.19 µM (inactive) in the assay with SF-295, 19.6 µM (inactive) in the assay on SN12C, 23.1 µM (inactive) in the assay with SR and 31.6 µM (inactive) in the assay on UO-31.

For `[O-][S+]1c2ccccc2SCSc2ccccc21`, the GI50 is > 100 µM (inactive) with A498; > 100 µM (inactive) in the assay with ACHN; above 100 µM in the assay with HCT-15; > 100 µM (inactive) in the assay on HOP-62; > 100 µM (inactive) in the assay with HT-29; > 100 µM (inactive) in the assay on M14. The GI50 in the assay with OVCAR-3, in the assay on OVCAR-4, in the assay with OVCAR-5, in the assay with OVCAR-8, in the assay on SF-268 and with SF-295 was > 100 µM (inactive) each time. Also, the GI50 was > 100 µM (inactive) with SF-539, > 100 µM (inactive) with SN12C, 46.2 µM (inactive) in the assay on SR and > 100 µM (inactive) in the assay on UO-31.

As for `CN(CC(=O)O)c1ncc2c(n1)-c1ccccc1OC2`, the GI50 was > 100 µM (inactive) in the assay with A498; > 100 µM (inactive) in the assay with ACHN; above 100 µM in the assay with HCT-15; > 100 µM (inactive) in the assay with HT-29; > 100 µM (inactive) in the assay with IGROV-1; > 100 µM (inactive) in the assay with LOX IMVI. The GI50 in the assay on M14, in the assay with OVCAR-4, with OVCAR-5, in the assay on OVCAR-8, with SF-268 and with SF-295 was > 100 µM (inactive) in each case. The GI50 with SF-539, in the assay on SN12C, with SR, in the assay on UACC-257 and with UO-31 was > 100 µM (inactive) each time.

In the case of `O=C(/C=C1/Nc2ccc([N+](=O)[O-])cc2N/C1=C/C(=O)c1ccc(Cl)cc1)c1ccccc1`, the GI50 with A498 was 35.6 µM (inactive); with ACHN, > 100 µM (inactive); in the assay on HCT-15, above 100 µM; in the assay with HOP-62, 20.8 µM (inactive); in the assay with HT-29 it was > 100 µM (inactive); with IGROV-1 it was > 100 µM (inactive). The GI50 in the assay on M14 is > 100 µM (inactive); in the assay on OVCAR-3, > 100 µM (inactive); in the assay with OVCAR-4 it was > 100 µM (inactive); with OVCAR-5, > 100 µM (inactive); in the assay on OVCAR-8, 72.4 µM (inactive); in the assay with SF-268 it was 30.4 µM (inactive). Also, the GI50 with SF-295 was 23.4 µM (inactive); in the assay on SF-539 it was 30.3 µM (inactive); in the assay on SN12C, > 100 µM (inactive); in the assay with SR, > 100 µM (inactive); with UACC-257, > 100 µM (inactive); in the assay on UO-31 it was > 100 µM (inactive).

Regarding `CCCCCCCCCCCCCCCC1(OC)C[N+](C)(C)CCO1` (stereo not drawn), the GI50 is 19.1 µM (inactive) with A498; 1.85 µM (inactive) in the assay on ACHN; 6.01 µM in the assay on HCT-15; 1.61 µM (inactive) in the assay on HOP-62; 1.22 µM (inactive) in the assay on HT-29; 1.61 µM (inactive) in the assay on IGROV-1. In addition, the GI50 in the assay on LOX IMVI is 1.26 µM (inactive); with M14 it was 1.65 µM (inactive); in the assay with OVCAR-3, 1.75 µM (inactive); with OVCAR-4, 1.02 µM (active); in the assay with OVCAR-5, 2.23 µM (inactive); in the assay on OVCAR-8, 1.83 µM (inactive). The GI50 in the assay with SF-268 is 2.08 µM (inactive); in the assay with SF-295, 1.69 µM (inactive); in the assay on SF-539 it was 1.74 µM (inactive); in the assay with SN12C, 1.66 µM (inactive); with SR, 2.25 µM (inactive); in the assay on UACC-257, 2.08 µM (inactive).

As to `CO[C@]12S[C@@H]3CCCC[C@@]31C(C)(C)C(=O)N2c1ccccc1`, the GI50 was > 100 µM (inactive) in the assay with A498; 37.4 µM (inactive) with ACHN; 29.1 µM in the assay with HCT-15; 16.7 µM (inactive) in the assay with HOP-62; 47.4 µM (inactive) in the assay with HT-29; 46.2 µM (inactive) with IGROV-1. Besides, the GI50 with LOX IMVI is 32.6 µM (inactive); in the assay on M14, 70 µM (inactive); in the assay with OVCAR-3 it was 15.2 µM (inactive); in the assay with OVCAR-5, > 100 µM (inactive); with OVCAR-8 it was 30.1 µM (inactive); with SF-268 it was 37.9 µM (inactive). The GI50 in the assay on SF-295 is 16 µM (inactive); in the assay on SF-539, 4.11 µM (inactive); with SN12C, 18.4 µM (inactive); with SR, 28.5 µM (inactive); with UACC-257 it was 33.8 µM (inactive); with UO-31, 91.4 µM (inactive).

Consider `CCCC1(N)CC(OC)OC(C)C1O` (stereo not drawn), for which the GI50 is > 100 µM (inactive) in the assay with A498; > 100 µM (inactive) with ACHN; above 100 µM in the assay with HCT-15; > 100 µM (inactive) with HOP-62; > 100 µM (inactive) in the assay on HT-29; > 100 µM (inactive) in the assay on IGROV-1. Besides, the GI50 in the assay with LOX IMVI, in the assay on M14, in the assay on OVCAR-3, in the assay with OVCAR-5, with OVCAR-8 and with SF-268 was > 100 µM (inactive) each time. Also, the GI50 in the assay with SF-295, with SF-539, in the assay with SN12C, with SR, in the assay on UACC-257 and in the assay with UO-31 was > 100 µM (inactive) each time.

For the compound `Cc1ccc(Nc2nc(=O)c3c([nH]c4ccccc43)s2)cc1`, the GI50 with A498 was 18.1 µM (inactive); with ACHN, 16.2 µM (inactive); in the assay with HCT-15, 7.55 µM; in the assay on HOP-62, 10.2 µM (inactive); in the assay with HT-29, 10.8 µM (inactive); in the assay on IGROV-1, 13.7 µM (inactive). Also, the GI50 was 13 µM (inactive) with LOX IMVI; 6.59 µM (inactive) in the assay on M14; 14 µM (inactive) with OVCAR-3; 18.1 µM (inactive) with OVCAR-4; 15.4 µM (inactive) with OVCAR-8; 16.7 µM (inactive) in the assay with SF-268. Moreover, the GI50 was 11.8 µM (inactive) with SF-295; 15.7 µM (inactive) with SF-539; 15 µM (inactive) in the assay with SN12C; 4.68 µM (inactive) with SR; 17.1 µM (inactive) in the assay with UACC-257; 2.9 µM (inactive) in the assay on UO-31.

Take `OC[C@@H](O)[C@H]1NC[C@@H](O)[C@H]1O`: the GI50 in the assay on A498 was > 100 µM (inactive); in the assay with ACHN it was > 100 µM (inactive); in the assay with HCT-15, above 100 µM; in the assay on HOP-62, > 100 µM (inactive); with HT-29, > 100 µM (inactive); in the assay with IGROV-1, > 100 µM (inactive). Besides, the GI50 in the assay on M14, in the assay on OVCAR-3, with OVCAR-4, in the assay on OVCAR-5, in the assay on OVCAR-8 and in the assay on SF-268 was > 100 µM (inactive) each time. The GI50 in the assay on SF-295, in the assay on SF-539, in the assay with SN12C, in the assay on SR, in the assay on UACC-257 and in the assay with UO-31 was > 100 µM (inactive) each time.

Turning to `CC(CCC(=O)O)[C@H]1CCC2[C@H]3C(CC(=O)[C@@]21C)[C@@]1(C)CCC(O)C[C@H]1C[C@@H]3O` (stereo partly drawn), the GI50 in the assay with A498 is > 100 µM (inactive); with ACHN, > 100 µM (inactive); in the assay with HCT-15 it was above 100 µM; in the assay with HOP-62, > 100 µM (inactive); with HT-29, > 100 µM (inactive); with IGROV-1 it was > 100 µM (inactive). Further, the GI50 in the assay with LOX IMVI, in the assay on M14, in the assay with OVCAR-4, in the assay with OVCAR-5, in the assay on OVCAR-8 and in the assay with SF-268 was > 100 µM (inactive) throughout. Besides, the GI50 with SF-539, in the assay on SN12C, in the assay with SR, with UACC-257 and in the assay with UO-31 was > 100 µM (inactive) in each case.
